In one experiment the target is T1, GPR84 (Homo sapiens, UniProt Q9NQS5).
T1 construct: expressed in transfected cells
Nature of the experiment: GPR84 [35S]GTPγS binding assay. Conditions: 3,3′-diindolylmethane at EC80; membranes from stable cell line over expressing GPR84. The class given is biochemical. Put shortly: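 Antagonist-mode [35S]GTPγS binding on membranes from a GPR84-overexpressing stable line (GDP-preincubated), stimulated with 3,3′-diindolylmethane at EC80. Buffer 20 mM Tris pH 7.5, 5 mM MgCl2, 250 mM NaCl, saponin; 0.1 nM [35S]GTPγS, 90 min at room temperature, SPA bead read-out.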
A general note: GTPγS resists hydrolysis and so accumulates on activated G proteins.

Another experiment concerns human neutrophils. The experiment is described as follows: Human neutrophil migration assay. The class given is cell-based. Conditions: for IC50: Homo sapiens, Neutrophil, read-out: Human neutrophil migration IC50. How it is done: The activity of GPR84 agonists and antagonists can therefore be assayed in a human neutrophil migration assay. The human neutrophil migration assay makes use of freshly isolated human neutrophils from buffy coats that are subsequently used in a functional chemotaxis assay setup. […] After 1 h of incubation at 37° C. and 5% CO2, the number of migrated neutrophils in the lower compartment can be quantified by measuring the ATP content using ATPlite™ Luminescence Assay System. A human buffy coat suspension is diluted with an equal volume of ice cold DPBS. 20 mL of the diluted buffy coat suspension is gently mixed with 4 mL of ACD buffer (140 mM citric acid, 200 mM sodium citrate and 220 mM dextrose). Then, 12 mL of a 6% dextran/0.9% NaCl solution (15 g dextran T2000 and 2.25 g NaCl dissolved in 250 mL H2O) is added to the mixture and the samples are inverted gently up to 20 times. The total volume is transferred to a new recipient and incubated at room temperature to allow sedimentation of red blood cells. The yellowish upper fraction is then transferred to a clean centrifugation tube and centrifuged for 12 min at 1300 rpm and 4° C. After centrifugation, the supernatant is discarded and the remaining cell pellet is rapidly resuspended in 12 mL of ice-cold H2O to perform a red blood cell lysis by osmotic burst. After 20 seconds, 4 mL of ice-cold 0.6 M KCl is added to restore salt concentration. Samples are mixed carefully and centrifuged for 6 min at 1300 rpm and 4° C. The supernatant is discarded and the red blood cell lysis procedure is repeated one more time. […] A neutrophil cell suspension of 8.9×10^6 cells per mL is prepared in chemotaxis buffer and 180 μL per well is plated in a 96-well V-bottom plate. 20 μL of test compound solution in chemotaxis buffer is added to the 180 μL cell suspension. The mixture is incubated at room temperature for 30 min with intermediate gentle resuspension of the cells after 15 min. […] After 1 h at 37° C., 5% CO2 in a humidified incubator, the upper plate of the Transwell® system is gently removed. […] After incubation, 270 μL of cell lysate is then transferred onto a white 96-well plate for quantification by a luminescence plate reader. The relative luminescent signal measured is considered linearly related to the number of cells having migrated from the upper compartment into the receiver well.

Where [1] appears, read: embelin at EC80 as chemotactic agent, 1 h at 37° C.

We go through 26 molecules from US10568879B2 (GALAPAGOS NV, priority 2015, dated 2020).

Molecules are shown by their SMILES. Read-outs that look alike come from different tables or passages of the source.

T1 sequence (Q9NQS5 whole entry): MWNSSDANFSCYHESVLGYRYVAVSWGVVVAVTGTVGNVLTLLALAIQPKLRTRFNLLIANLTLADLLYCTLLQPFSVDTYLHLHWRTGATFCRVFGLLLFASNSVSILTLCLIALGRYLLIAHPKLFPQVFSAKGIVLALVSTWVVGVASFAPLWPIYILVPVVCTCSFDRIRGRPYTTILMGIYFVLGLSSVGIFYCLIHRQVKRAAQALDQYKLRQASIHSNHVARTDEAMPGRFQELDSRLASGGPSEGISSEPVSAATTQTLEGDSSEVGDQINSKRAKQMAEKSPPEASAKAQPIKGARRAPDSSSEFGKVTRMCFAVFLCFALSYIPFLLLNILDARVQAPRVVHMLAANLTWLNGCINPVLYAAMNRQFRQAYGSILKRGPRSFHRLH

With `COc1cc2c(cc1OC)-c1cc(=O)cc(NCC3CCCO3)n1CC2` (centres unmarked) [Compound 4, 9,10-Dimethoxy-4-[(tetrahydro-furan-2-ylmethyl)-amino]-6,7-dihydro-pyrido[2,1-a]isoquinolin-2-one], the IC50 at GPR84 and in the experiment with human neutrophils (setting [1]) was over 1000 nM in each case.

As to `COc1cc2c(cc1OC)-c1c(C)c(=O)cc(NC[C@@H]3COCCO3)n1CC2` [Compound 6, 4-[[(2R)-1,4-dioxan-2-yl]methylamino]-9,10-dimethoxy-1-methyl-6,7-dihydrobenzo[a]quinolizin-2-one], the values for the IC50 on GPR84 and in the experiment with human neutrophils (setting [1]) were 500 to 1000 nM and over 1000 nM, respectively.

In the case of `Cc1c2n(c(NCC3CCCO3)cc1=O)CCc1cc(OCC3CC3(F)F)ccc1-2` (centres unmarked) [Compound 7, 9-(2,2-Difluoro-cyclopropylmethoxy)-1-methyl-4-[(tetrahydro-furan-2-ylmethyl)-amino]-6,7-dihydro-pyrido[2,1-a]isoquinolin-2-one], the IC50 at GPR84 is 0.01 to 100 nM; with human neutrophils (setting [1]), 100 to 500 nM.

As to `Cc1c2n(c(NCC3CCCO3)cc1=O)CCc1cc(OC3CCCO3)ccc1-2` (centres unmarked) [Compound 9, -Methyl-4-[(tetrahydro-furan-2-ylmethyl)-amino]-9-(tetrahydro-furan-2-yloxy)-6,7-dihydro-pyrido[2,1-a]isoquinolin-2-one], the IC50 on GPR84 and in the experiment on human neutrophils (setting [1]) was 100 to 500 nM throughout.

Consider `Cc1c2n(c(NCC3CCCCO3)cc1=O)CCc1cc(OCC(F)F)ccc1-2` (centres unmarked) [Compound 13, 9-(2,2-difluoroethoxy)-1-methyl-4-(tetrahydropyran-2-ylmethylamino)-6,7-dihydrobenzo[a]quinolizin-2-one], for which the IC50 on GPR84 and in the experiment with human neutrophils (setting [1]) was 100 to 500 nM each time.

Consider `Cc1c2n(c(NCC3CCCCO3)cc1=O)CCc1cc(OCC(F)(F)F)ccc1-2` (centres unmarked) [Compound 14, 1-methyl-4-(tetrahydropyran-2-ylmethylamino)-9-(2,2,2-trifluoroethoxy)-6,7-dihydrobenzo[a]quinolizin-2-one], for which the IC50 at GPR84 and with human neutrophils (setting [1]) was 0.01 to 100 nM each time.

With `COc1ccc2c(c1OC)CCn1c(NCC3CCCCO3)cc(=O)c(C)c1-2` (centres unmarked) [Compound 16, 8,9-dimethoxy-1-methyl-4-(tetrahydropyran-2-ylmethylamino)-6,7-dihydrobenzo[a]quinolizin-2-one], the IC50 on GPR84 is 0.01 to 100 nM; in the experiment on human neutrophils (setting [1]), 100 to 500 nM.

For the molecule `COc1ccc2c(c1OC)CCn1c(NCC3COCCO3)cc(=O)c(C)c1-2` (centres unmarked) [Compound 17, 4-(1,4-dioxan-2-ylmethylamino)-8,9-dimethoxy-1-methyl-6,7-dihydrobenzo[a]quinolizin-2-one], the IC50 on GPR84 fell in the range of 0.01 to 100 nM; with human neutrophils (setting [1]) it was 100 to 500 nM.

Regarding `COc1ccc2c(c1OC)CCn1c(NCC3COCCO3)cc(=O)cc1-2` (centres unmarked) [Compound 19, 4-(1,4-dioxan-2-ylmethylamino)-8,9-dimethoxy-6,7-dihydrobenzo[a]quinolizin-2-one], the results for the IC50 at GPR84 and with human neutrophils (setting [1]) were 500 to 1000 nM and over 1000 nM, respectively.

`COc1ccc2c(c1OC)CCn1c(NCC3CCCO3)cc(=O)cc1-2` (centres unmarked) [Compound 20, 8,9-dimethoxy-4-(tetrahydrofuran-2-ylmethylamino)-6,7-dihydrobenzo[a]quinolizin-2-one]: the IC50 on GPR84 and in the experiment with human neutrophils (setting [1]) was over 1000 nM in each case.

Consider `COc1c(O)ccc2c1CCn1c(NCC3COCCO3)cc(=O)cc1-2` (centres unmarked) [Compound 21, 4-(1,4-dioxan-2-ylmethylamino)-9-hydroxy-8-methoxy-6,7-dihydrobenzo[a]quinolizin-2-one], for which the IC50 at GPR84 and in the experiment with human neutrophils (setting [1]) was over 1000 nM each time.

Regarding `COc1ccc2c(c1O)CCn1c(NCC3COCCO3)cc(=O)cc1-2` (centres unmarked) [Compound 22, 4-(1,4-dioxan-2-ylmethylamino)-8-hydroxy-9-methoxy-6,7-dihydrobenzo[a]quinolizin-2-one], the IC50 at GPR84 and with human neutrophils (setting [1]) was over 1000 nM throughout.

With `COc1c(OCC(F)F)ccc2c1CCn1c(NCC3COCCO3)cc(=O)c(C)c1-2` (centres unmarked) [Compound 23, 9-(2,2-Difluoro-ethoxy)-4-[([1,4]dioxan-2-ylmethyl)-amino]-8-methoxy-1-methyl-6,7-dihydro-pyrido[2,1-a]isoquinolin-2-one], the IC50 on GPR84 and in the experiment on human neutrophils (1 h) was 0.01 to 100 nM in each case.

For `COc1c(OCC(F)F)ccc2c1CCn1c(NCC3CCCO3)cc(=O)c(C)c1-2` (centres unmarked) [Compound 24, 9-(2,2-Difluoro-ethoxy)-8-methoxy-1-methyl-4-[(tetrahydro-furan-2-ylmethyl)-amino]-6,7-dihydro-pyrido[2,1-a]isoquinolin-2-one], the IC50 was 0.01 to 100 nM on GPR84 and 100 to 500 nM in the experiment with human neutrophils (setting [1]).

For `Cc1c2n(c(OC[C@@H]3COCCO3)cc1=O)CCc1cc(C#N)ccc1-2` [Compound 25, 4-[[(1S)-1,4-dioxan-2-yl]methoxy]-1-methyl-2-oxo-6,7-dihydrobenzo[a]quinolizine-9-carbonitrile], the results for the IC50 on GPR84 and with human neutrophils (setting [1]) were 500 to 1000 nM and over 1000 nM, respectively.

With `CCc1c2n(c(NCC3CCCO3)cc1=O)CCc1cc(OCC(F)F)ccc1-2` (centres unmarked) [Compound 26, 9-(2,2-difluoroethoxy)-1-ethyl-4-(tetrahydrofuran-2-ylmethylamino)-6,7-dihydrobenzo[a]quinolizin-2-one], the IC50 on GPR84 and with human neutrophils (setting [1]) was 500 to 1000 nM in each case.

For the molecule `CCc1c2n(c(NCC3CCCO3)cc1=O)CCc1cc(OCC(F)(F)F)ccc1-2` (centres unmarked) [Compound 27, 1-ethyl-4-(tetrahydrofuran-2-ylmethylamino)-9-(2,2,2-trifluoroethoxy)-6,7-dihydrobenzo[a]quinolizin-2-one], the results for the IC50 at GPR84 and with human neutrophils (setting [1]) were 500 to 1000 nM and 100 to 500 nM, respectively.

On to `COc1ccc2c(c1OC)CCn1c(OCC3CCCO3)cc(=O)c(C)c1-2` (centres unmarked) [Compound 28, 8,9-dimethoxy-1-methyl-4-(tetrahydrofuran-2-ylmethoxy)-6,7-dihydrobenzo[b]quinolizin-2-one], for which the IC50 at GPR84 and with human neutrophils (setting [1]) was 0.01 to 100 nM in each case.

With `Cc1c2n(c(NC[C@@H]3COCCO3)cc1=O)CCc1cc(OCc3ccccc3)ccc1-2` [Compound 34, 9-benzyloxy-4-[[(2R)-1,4-dioxan-2-yl]methylamino]-1-methyl-6,7-dihydrobenzo[a]quinolizin-2-one], the IC50 in the experiment with human neutrophils (setting [1]) was in the range of 0.01 to 100 nM.

For the molecule `Cc1ccc(COc2ccc3c(c2)CCn2c(OC[C@@H]4COCCO4)cc(=O)c(C)c2-3)cn1` [Compound 52, 4-[[(2S)-1,4-dioxan-2-yl]methoxy]-1-methyl-9-[(6-methyl-3-pyridyl)methoxy]-6,7-dihydrobenzo[a]quinolizin-2-one], the IC50 in the experiment on human neutrophils (setting [1]) was 0.01 to 100 nM.

For `Cc1c2n(c(OC[C@@H]3COCCO3)cc1=O)CCc1cc(N3CCN(C(=O)OC(C)(C)C)CC3)ccc1-2` [Compound 60, tert-butyl 4-[4-[[(2S)-1,4-dioxan-2-yl]methoxy]-1-methyl-2-oxo-6,7-dihydrobenzo[a]quinolizin-9-yl]piperazine-1-carboxylate], the IC50 in the experiment with human neutrophils (setting [1]) is 0.01 to 100 nM.

Regarding `Cc1c2n(c(OC[C@@H]3COCCO3)cc1=O)CCc1cc(C3CN(C(=O)OC(C)(C)C)C3)ccc1-2` [Compound 71, tert-butyl 3-[4-[[(2S)-1,4-dioxan-2-yl]methoxy]-1-methyl-2-oxo-6,7-dihydrobenzo[a]quinolizin-9-yl]azetidine-1-carboxylate], in the experiment with human neutrophils (setting [1]), the IC50 lay in the range of 0.01 to 100 nM.

Regarding `Cc1c2n(c(OC[C@@H]3COCCO3)cc1=O)CCc1cc(OCCOC(F)(F)F)ccc1-2` [Compound 72, 4-[[(2S)-1,4-dioxan-2-yl]methoxy]-1-methyl-9-[2-(trifluoromethoxy)ethoxy]-6,7-dihydrobenzo[a]quinolizin-2-one], the IC50 in the experiment on human neutrophils (setting [1]) lay in the range of 0.01 to 100 nM.

`Cc1c2n(c(OCC3COCCO3)cc1=O)CCc1cc(OCC(F)(F)F)ccc1-2` (centres unmarked) [Compound 90, 4-(1,4-dioxan-2-ylmethoxy)-1-methyl-9-(2,2,2-trifluoroethoxy)-6,7-dihydrobenzo[a]quinolizin-2-one]: in the experiment with human neutrophils (setting [1]), the IC50 was in the range of 0.01 to 100 nM.

Turning to `CCCCCCCCCC(=O)[O-].[Na+]` [sodium decanoate, reference compound], the “neutrophil chemotaxis induced by GPR84 agonists” value in the experiment with human neutrophils was “induce neutrophil chemotaxis”.

Regarding `CCCCCCCCCCC(=O)[O-].[Na+]` [sodium undecanoate, reference compound], in the experiment with human neutrophils, the “neutrophil chemotaxis induced by GPR84 agonists” value is listed as “induce neutrophil chemotaxis”.
